Here are results for 5 compounds from US11927585B2, “Solvent-based inks and coatings for food contact applications” (SUN CHEMICAL CORPORATION, priority 2020, dated 2024).

Series [1] is described as follows: Worst-case calculation, Application 2 cheese packaging wrap exposure scenario. Conditions: 100% migration, 2.0 g/m^2 dry film.
The nature of series [2]: Specific migration limit (SML) from regulation or hazard assessment (TTC, VEGA QSAR, Cramer Class). The following applies: source HA (internal hazard assessment), self-derived SML; EU Cube model.
The nature of series [3]: Worst-case calculation, Application 1 yoghurt pot lid exposure scenario. Conditions: 100% migration, 2.0 g/m^2 dry film.
Series [4] can be described thus: Worst-case calculation (100% migration), standard EU Cube exposure model. The following applies: 100% migration; for Worst-case calculation as a percentage of SML (or restriction), EU Cube: 2.0 g/m^2 dry film; for Worst Case Calculation of migration in EU Cube model (as a percentage of SML): dry coat weight 2.0 g/m^2.
Setting [5] is: substance in ink SBDEV980 (Ex. 4B Red).
[6] abbreviates: substance in ink SBDEV977 (Ex. 4A Yellow).
The mark [7] stands for this setting: substance in ink SBDEV976 (Ex. 4C Cyan).
The mark [8] stands for this setting: substance in ink SBDEV979 (Ex. 4D Black).

Structures are written as SMILES.

`O=C(O)c1ccc(-c2ccccc2)cc1` [0000092-92-2, 4-Phenylbenzoic Acid]: the “Worst-case calculation as a percentage of SML (or restriction), Application 2” value in series [1] (product SBDEV980) and in series [1] (product SBDEV1285) was 10.1 percentage of SML (or restriction) throughout. In series [2], the “SML or Restriction (mg substance/kg food)” value (from here on “SML or Restriction”) amounted to 0.09 mg substance/kg food. The “Worst-case calculation as a percentage of SML (or restriction), Application 1” value in series [3] (product SBDEV980) and in series [3] (product SBDEV1285) was 2.8 percentage of SML (or restriction) each time. The “Worst-case calculation as a percentage of SML (or restriction), EU Cube” value (“Worst-case calculation as a percentage … EU Cube” for short) in series [4] (product SBDEV980) and in series [4] (product SBDEV1285) was 7 percentage of SML (or restriction) throughout. The “Worst Case Calculation of migration in EU Cube model (as a percentage of SML)” value in series [4] (setting [5]) is recorded as 7 percentage of SML.

On to `CCCCCCCC/C=C\CCCCCCCC(=O)N(CCO)CCO` [0000093-83-4, N,N-Bis(2-hydroxyethyl) oleamide], for which the figures for the “Worst-case calculation as a percentage of SML (or restriction), Application 2” value in series [1] (product SBDEV977) and in series [1] (product SBDEV1287) were 99.4 percentage of SML (or restriction) and 97.9 percentage of SML (or restriction), respectively. In series [2], the “SML or Restriction” value is recorded as 0.09 mg substance/kg food. Besides, the “Worst-case calculation as a percentage of SML (or restriction), Application 1” value in series [3] (product SBDEV977) is listed as 27.1 percentage of SML (or restriction); in series [3] (product SBDEV1287), 26.7 percentage of SML (or restriction). Besides, the entries for the “Worst-case calculation as a percentage … EU Cube” value in series [4] (product SBDEV977) and in series [4] (product SBDEV1287) were 69 percentage of SML (or restriction) and 68 percentage of SML (or restriction), respectively. Moreover, the “Worst Case Calculation of migration in EU Cube model (as a percentage of SML)” value in series [4] (setting [6]) is listed as 69 percentage of SML.

For `O=Cc1ccc(Cl)cc1` [0000104-88-1, 4-Chlorobenzaldehyde], the “Worst-case calculation as a percentage of SML (or restriction), Application 2” value in series [1] (product SBDEV980) and in series [1] (product SBDEV1285) was 20.2 percentage of SML (or restriction) each time. Also, the “SML or Restriction” value in series [2] is on record as 0.09 mg substance/kg food. The “Worst-case calculation as a percentage of SML (or restriction), Application 1” value in series [3] (product SBDEV980) and in series [3] (product SBDEV1285) was 5.5 percentage of SML (or restriction) each time. Besides, the “Worst-case calculation as a percentage … EU Cube” value in series [4] (product SBDEV980) and in series [4] (product SBDEV1285) was 14 percentage of SML (or restriction) each time. Moreover, the “Worst Case Calculation of migration in EU Cube model (as a percentage of SML)” value in series [4] (setting [5]) is given as 14 percentage of SML.

As to `CCCCCCCC/C=C\CCCCCCCC(=O)OCC` [0000111-62-6, Ethyl Oleate], the “Worst-case calculation as a percentage of SML (or restriction), Application 2” value is recorded as 34.6 percentage of SML (or restriction) in series [1] (product SBDEV976); 34.6 percentage of SML (or restriction) in series [1] (product SBDEV977); 32.7 percentage of SML (or restriction) in series [1] (product SBDEV979); 34.5 percentage of SML (or restriction) in series [1] (product SBDEV980); 32.68 percentage of SML (or restriction) in series [1] (product SBDEV1284); 32.68 percentage of SML (or restriction) in series [1] (product SBDEV1285). The “Worst-case calculation as a percentage of SML (or restriction), Application 2” value in series [1] (product SBDEV1286) and in series [1] (product SBDEV1287) was 32.68 percentage of SML (or restriction) throughout. The “SML or Restriction” value in series [2] is 0.09 mg substance/kg food. The “Worst-case calculation as a percentage of SML (or restriction), Application 1” value in series [3] (product SBDEV976) is on record as 9.42 percentage of SML (or restriction); in series [3] (product SBDEV977) it was 9.42 percentage of SML (or restriction); in series [3] (product SBDEV979) it was 8.92 percentage of SML (or restriction); in series [3] (product SBDEV980), 9.45 percentage of SML (or restriction); in series [3] (product SBDEV1284) it was 8.91 percentage of SML (or restriction); in series [3] (product SBDEV1285), 8.91 percentage of SML (or restriction). The “Worst-case calculation as a percentage of SML (or restriction), Application 1” value in series [3] (product SBDEV1286) and in series [3] (product SBDEV1287) was 8.91 percentage of SML (or restriction) in each case. The “Worst-case calculation as a percentage … EU Cube” value in series [4] (product SBDEV976) is 24.0 percentage of SML (or restriction); in series [4] (product SBDEV977) it was 24.0 percentage of SML (or restriction); in series [4] (product SBDEV979), 22.7 percentage of SML (or restriction); in series [4] (product SBDEV980) it was 24.0 percentage of SML (or restriction); in series [4] (product SBDEV1284) it was 22.7 percentage of SML (or restriction); in series [4] (product SBDEV1285), 22.7 percentage of SML (or restriction). Besides, the “Worst-case calculation as a percentage … EU Cube” value in series [4] (product SBDEV1286) and in series [4] (product SBDEV1287) was 22.7 percentage of SML (or restriction) throughout. Further, the “Worst Case Calculation of migration in EU Cube model (as a percentage of SML)” value in series [4] (setting [7]) is 24.0 percentage of SML; in series [4] (setting [6]), 24 percentage of SML; in series [4] (setting [8]), 22.2 percentage of SML; in series [4] (setting [5]), 24.0 percentage of SML.

For the compound `O=C1NCCN1` [0000120-93-4, 2-Imidazolidinone], the “Worst-case calculation as a percentage of SML (or restriction), Application 2” value is listed as 23.0 percentage of SML (or restriction) in series [1] (product SBDEV976); 21.6 percentage of SML (or restriction) in series [1] (product SBDEV977); 21.6 percentage of SML (or restriction) in series [1] (product SBDEV979); 23.0 percentage of SML (or restriction) in series [1] (product SBDEV980); 15.8 percentage of SML (or restriction) in series [1] (product SBDEV1284); 17.3 percentage of SML (or restriction) in series [1] (product SBDEV1285). Besides, the figures for the “Worst-case calculation as a percentage of SML (or restriction), Application 2” value in series [1] (product SBDEV1286) and in series [1] (product SBDEV1287) were 17.3 percentage of SML (or restriction) and 15.8 percentage of SML (or restriction), respectively. For the same compound, in series [2], the “SML or Restriction” value was found to be 4.98 mg substance/kg food. In addition, the “Worst-case calculation as a percentage of SML (or restriction), Application 1” value in series [3] (product SBDEV976) is given as 6.3 percentage of SML (or restriction); in series [3] (product SBDEV977) it was 5.9 percentage of SML (or restriction); in series [3] (product SBDEV979), 5.9 percentage of SML (or restriction); in series [3] (product SBDEV980) it was 6.3 percentage of SML (or restriction); in series [3] (product SBDEV1284), 4.3 percentage of SML (or restriction); in series [3] (product SBDEV1285), 4.7 percentage of SML (or restriction). For the same compound, the figures for the “Worst-case calculation as a percentage of SML (or restriction), Application 1” value in series [3] (product SBDEV1286) and in series [3] (product SBDEV1287) were 4.7 percentage of SML (or restriction) and 4.3 percentage of SML (or restriction), respectively. The “Worst-case calculation as a percentage … EU Cube” value in series [4] (product SBDEV976) is given as 16 percentage of SML (or restriction); in series [4] (product SBDEV977), 15 percentage of SML (or restriction); in series [4] (product SBDEV979) it was 15 percentage of SML (or restriction); in series [4] (product SBDEV980) it was 16 percentage of SML (or restriction); in series [4] (product SBDEV1284), 11 percentage of SML (or restriction); in series [4] (product SBDEV1285), 12 percentage of SML (or restriction). Moreover, the “Worst-case calculation as a percentage … EU Cube” value is recorded as 12 percentage of SML (or restriction) in series [4] (product SBDEV1286) and 11 percentage of SML (or restriction) in series [4] (product SBDEV1287). For the same compound, the “Worst Case Calculation of migration in EU Cube model (as a percentage of SML)” value is given as 16 percentage of SML in series [4] (setting [7]), 15 percentage of SML in series [4] (setting [6]), 15 percentage of SML in series [4] (setting [8]) and 16 percentage of SML in series [4] (setting [5]).
